{"source": "patent US20240384268A1", "about": "“Oligonucleotides” (Hudson Institute of Medical Research, priority 2021, published 2024)", "type_in_all_cases": "cell-based", "key": {"cGAS [1]": {"molecular_target": "T1, cGAS (Homo sapiens, UniProt Q8N884)", "T1 sequence (Q8N884 whole entry)": "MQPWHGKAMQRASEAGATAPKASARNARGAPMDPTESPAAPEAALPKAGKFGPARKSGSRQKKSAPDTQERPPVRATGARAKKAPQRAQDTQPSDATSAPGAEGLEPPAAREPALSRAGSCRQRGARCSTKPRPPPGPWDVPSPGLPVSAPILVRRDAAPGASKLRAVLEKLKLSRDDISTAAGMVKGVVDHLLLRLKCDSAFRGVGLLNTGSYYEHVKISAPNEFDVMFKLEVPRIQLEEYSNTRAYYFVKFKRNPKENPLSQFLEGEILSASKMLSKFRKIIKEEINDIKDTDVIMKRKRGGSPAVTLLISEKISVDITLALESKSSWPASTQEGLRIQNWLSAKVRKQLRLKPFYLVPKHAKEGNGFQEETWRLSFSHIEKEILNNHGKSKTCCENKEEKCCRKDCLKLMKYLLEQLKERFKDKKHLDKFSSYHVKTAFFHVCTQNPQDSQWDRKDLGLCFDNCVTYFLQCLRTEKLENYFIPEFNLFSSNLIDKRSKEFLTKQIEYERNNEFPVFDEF", "experiment": "ISD70-driven IP-10 production in HT-29 cells, ELISA", "parameters": "endogenous in cells", "conditions": "187.5 nM ASO overnight, ISD70 24 h"}, "cGAS [2]": {"molecular_target": "T1, cGAS", "experiment": "ISD70-driven IP-10 (and IFN-β) production in THP-1 cells, ELISA", "parameters": "endogenous in cells; host or cells: THP-1 (undifferentiated)", "conditions": "for cGAS-100 nM: averaged IP-10 levels relative to ISD70: 100 nM ASO overnight, then ISD70 2.5 μg/ml 7-8 h, percentage of ISD70 only; for cGAS 100 nM (averaged IP-10 level relative to ISD70 condition): ASO 100 nM, relative to ISD70 only, given as fraction; for inhibition of cGAS in THP-1, LNA and MOE ASO validation (in words): 300 nM LNA or 200 nM MOE ASO ~30 min, ISD70 overnight (FIG. 21, 23)"}, "cGAS [3]": {"molecular_target": "T1, cGAS", "experiment": "ISD70-driven IP-10 production in MG-63 cells", "parameters": "endogenous in cells", "conditions": "indicated concentrations up to 500 nM, ~30 min, ISD overnight (FIG. 24)"}}, "note": "In the oligonucleotide strings, read from the 5' end, every base follows the letter of its sugar. An asterisk marks phosphorothioate; unmarked linkages are phosphodiester. Other units and linkages are bracketed, terminal groups are in braces. A string of capitals states the bases alone. d = 2'-deoxy (DNA); m = 2'-O-methyl", "data": [{"substance": "mG*mC*mA*mG*mU*C*T*C*C*A*T*G*T*C*C*mC*mA*mG*mG*mC (GCAGUCTCCATGTCCCAGGC; antisense; sugars from the 5' end m5 d10 m5, all phosphorothioate, methylation of C not given here) [[CDKN2B-AS1]2234]", "values": [{"measurement": "inhibition of ISD70-dependent IP-10 production (in words)", "setting": "cGAS [1]", "value": "robustly inhibited ISD70-dependent IP-10 production"}, {"measurement": "cGAS-100 nM: averaged IP-10 levels relative to ISD70", "setting": "cGAS [2]; THP-1", "value": 10.02, "unit": "%"}, {"measurement": "inhibition of ISD70-driven IP-10 production (in words)", "setting": "cGAS [2]; THP-1, 2′OMe or PS oligos, 100-250 nM, pre-treatment as in figure legends, ISD70 2.5 μg/ml", "value": "robustly inhibited ISD70-dependent IP-10 production"}]}, {"substance": "mA*mG*mC*mA*mG*T*C*T*C*C*A*T*G*T*C*mC*mC*mA*mG*mG (AGCAGTCTCCATGTCCCAGG; antisense; sugars from the 5' end m5 d10 m5, all phosphorothioate, methylation of C not given here) [[CDKN2B-AS1]2235]", "values": [{"measurement": "cGAS-100 nM: averaged IP-10 levels relative to ISD70", "setting": "cGAS [2]; THP-1", "value": 28.75, "unit": "%"}]}, {"substance": "ACCACGTCTGCTCTAA (antisense; LNA-modified, pattern not given here) [CAMSAP1-1635 LNA KL]", "values": [{"measurement": "cGAS 100 nM (averaged IP-10 level relative to ISD70 condition)", "setting": "cGAS [2]", "value": 0.638}]}, {"substance": "AATCCAACAAAGTCTG (antisense; LNA-modified, pattern not given here) [HPRT LNA-692 KL]", "values": [{"measurement": "cGAS 100 nM (averaged IP-10 level relative to ISD70 condition)", "setting": "cGAS [2]", "value": 0.649}]}, {"substance": "TGTCCTTGCACGTGGC (antisense; LNA-modified, pattern not given here) [EGFR-1016 LNA V1]", "values": [{"measurement": "cGAS 100 nM (averaged IP-10 level relative to ISD70 condition)", "setting": "cGAS [2]", "value": 0.678}]}, {"substance": "TCCATACCCAAGGCAT (antisense; LNA-modified, pattern not given here) [CTNN2B-2446 LNA V1]", "values": [{"measurement": "cGAS 100 nM (averaged IP-10 level relative to ISD70 condition)", "setting": "cGAS [2]", "value": 0.589}]}, {"substance": "CTTCGTGGGGTCCTTT (antisense; LNA-modified, pattern not given here) [HPRT LNA-662 V1]", "values": [{"measurement": "cGAS 100 nM (averaged IP-10 level relative to ISD70 condition)", "setting": "cGAS [2]", "value": 0.556}]}, {"substance": "TGACTGTCTTGAGGGT (antisense; LNA-modified, pattern not given here) [MB21D1-1483 LNA KL]", "values": [{"measurement": "cGAS 100 nM (averaged IP-10 level relative to ISD70 condition)", "setting": "cGAS [2]", "value": 0.747}]}, {"substance": "GGTCATTACAATAGCT (antisense; LNA-modified, pattern not given here) [HPRT LNA-475 KL]", "values": [{"measurement": "cGAS 100 nM (averaged IP-10 level relative to ISD70 condition)", "setting": "cGAS [2]", "value": 0.751}]}, {"substance": "mG*mU*mG*mU*mC*C*T*T*C*A*T*G*C*T*T*mU*mG*mG*mA*mU (GUGUCCTTCATGCTTUGGAU; antisense; sugars from the 5' end m5 d10 m5, all phosphorothioate, methylation of C not given here) [[CDKN2B-AS1]1415]", "values": [{"measurement": "cGAS-100 nM: averaged IP-10 levels relative to ISD70", "setting": "cGAS [2]; THP-1", "value": 58.18, "unit": "%"}]}, {"substance": "GTCCTTGCACGTGGCT (antisense; LNA-modified, pattern not given here) [EGFR-1015 LNA V1]", "values": [{"measurement": "cGAS 100 nM (averaged IP-10 level relative to ISD70 condition)", "setting": "cGAS [2]", "value": 0.645}]}, {"substance": "TCTTGGCTTCGTGGAG (antisense; LNA-modified, pattern not given here) [MB21D1-521 LNA V1]", "values": [{"measurement": "cGAS 100 nM (averaged IP-10 level relative to ISD70 condition)", "setting": "cGAS [2]", "value": 0.693}]}, {"substance": "mC*mU*mU*mG*mU*G*A*A*A*A*G*A*T*T*A*mU*mC*mU*mU*mC (mC*mU*mU*mG*mU*dG*dA*dA*dA*dA*dG*dA*dT*dT*dA*mU*mC*mU*mU*mC) [[CDKN2B-AS1]2139]", "values": [{"measurement": "cGAS-100 nM: averaged IP-10 levels relative to ISD70", "setting": "cGAS [2]; THP-1", "value": 33.75, "unit": "%"}]}, {"substance": "mC*mA*mG*mU*mC*T*C*C*A*T*G*T*C*C*C*mA*mG*mG*mC*mC (mC*mA*mG*mU*mC*dT*dC*dC*dA*dT*dG*dT*dC*dC*dC*mA*mG*mG*mC*mC; antisense) [[CDKN2B-AS1]2233]", "values": [{"measurement": "cGAS-100 nM: averaged IP-10 levels relative to ISD70", "setting": "cGAS [2]; THP-1", "value": 75.92, "unit": "%"}]}, {"substance": "mG*mU*mG*mU*mU*T*T*T*A*A*T*T*T*T*G*mU*mA*mG*mA*mG (mG*mU*mG*mU*mU*dT*dT*dT*dA*dA*dT*dT*dT*dT*dG*mU*mA*mG*mA*mG) [[CDKN2B-AS1]611]", "values": [{"measurement": "cGAS-100 nM: averaged IP-10 levels relative to ISD70", "setting": "cGAS [2]; THP-1", "value": 66.24, "unit": "%"}]}, {"substance": "CTTGAAGCATCGTATC (antisense; LNA-modified, pattern not given here) [CTNN2B-3648 LNA KL]", "values": [{"measurement": "cGAS 100 nM (averaged IP-10 level relative to ISD70 condition)", "setting": "cGAS [2]", "value": 0.373}, {"measurement": "inhibition of cGAS in THP-1, LNA and MOE ASO validation (in words)", "setting": "cGAS [2]; THP-1", "value": "failed to significantly inhibit cGAS"}]}, {"substance": "AACACTTCGTGGGGTC (antisense; LNA-modified, pattern not given here) [HPRT LNA-666 V1]", "values": [{"measurement": "cGAS 100 nM (averaged IP-10 level relative to ISD70 condition)", "setting": "cGAS [2]", "value": 0.598}]}, {"substance": "GCACTTCAGTCTGAGC (antisense; LNA-modified, pattern not given here) [MB21D1-719 LNA KL]", "values": [{"measurement": "cGAS 100 nM (averaged IP-10 level relative to ISD70 condition)", "setting": "cGAS [2]", "value": 0.797}]}, {"substance": "AGGTCTTGGCTTCGTG (antisense; LNA-modified, pattern not given here) [MB21D1-524 LNA V1]", "values": [{"measurement": "cGAS 100 nM (averaged IP-10 level relative to ISD70 condition)", "setting": "cGAS [2]", "value": 0.947}]}, {"substance": "TCCTTGCACGTGGCTT (antisense; LNA-modified, pattern not given here) [EGFR-1014 LNA V1]", "values": [{"measurement": "cGAS 100 nM (averaged IP-10 level relative to ISD70 condition)", "setting": "cGAS [2]", "value": 0.591}]}, {"substance": "TCCACAATCAAGACAT (antisense; LNA-modified, pattern not given here) [HPRT LNA-551 KL]", "values": [{"measurement": "cGAS 100 nM (averaged IP-10 level relative to ISD70 condition)", "setting": "cGAS [2]", "value": 0.601}]}, {"substance": "CGCTTTTCTGTCTGGT (antisense; LNA-modified, pattern not given here) [CTNN2B-311 LNA KL]", "values": [{"measurement": "IP-10 after ISD in MG-63, MOE and LNA ASOs (in words)", "setting": "cGAS [3]", "value": "did not inhibit IP-10 production"}, {"measurement": "cGAS 100 nM (averaged IP-10 level relative to ISD70 condition)", "setting": "cGAS [2]", "value": 0.475}, {"measurement": "inhibition of cGAS in THP-1, LNA and MOE ASO validation (in words)", "setting": "cGAS [2]; THP-1", "value": "potently inhibited signalling"}]}, {"substance": "AGGCCCTTCGCACTTC (antisense; LNA-modified, pattern not given here) [EGFR-1225 LNA V1]", "values": [{"measurement": "cGAS 100 nM (averaged IP-10 level relative to ISD70 condition)", "setting": "cGAS [2]", "value": 0.629}]}, {"substance": "AGCTTCGAGGCCCCAG (antisense; LNA-modified, pattern not given here) [MB21D1-616 LNA V1]", "values": [{"measurement": "cGAS 100 nM (averaged IP-10 level relative to ISD70 condition)", "setting": "cGAS [2]", "value": 0.648}]}, {"substance": "GATGGCCTCCCATCTC (antisense; LNA-modified, pattern not given here) [HPRT LNA-331 V1]", "values": [{"measurement": "cGAS 100 nM (averaged IP-10 level relative to ISD70 condition)", "setting": "cGAS [2]", "value": 0.632}]}, {"substance": "CCAACACTTCGTGGGG (antisense; LNA-modified, pattern not given here) [HPRT LNA-668 V1]", "values": [{"measurement": "cGAS 100 nM (averaged IP-10 level relative to ISD70 condition)", "setting": "cGAS [2]", "value": 0.842}]}]}
